Laboratory results taken from patent US20240376607A1, “METHOD AND COMPOSITION FOR TREATING DILUTION STEAM GENERATOR SYSTEMS” (BL Technologies, Inc., priority 2021, published 2024).
“Also recorded” adds a separate entry of the source.

Assay: Electrochemical corrosion rate measurement (Rp/Ec trend) in DSG water
Conditions: DSG Water B, 100 ppm active
Description: Electrochemical measurements were carried out using Gamry 600+ Potentiostat coupled with DC105™ Corrosion Techniques Software. Experiments were performed with a conventional three-electrode electrochemical cell and by employing the Rp/Ec trend technique. All tests were carried out for 24 hours at pH=8.2 to 8.8 and at T=22±0.2° C. (maintained with a recirculating water bath). A Teflon® liner was used to avoid filmer loss to the corrosion cell. The corrosion rates are measured in milli-inch per year (mpy). Pre-cleaned low carbon steel (LCS) coupons having a total surface area of 2.95 in^2 and a density of 7.87 g/cm^3 were used for testing the corrosion inhibitor treatments.

## octenyl succinic acid [OSA]
LCS coupons
  corrosion inhibition (FIG. 1): inhibit corrosion; also recorded: not as robust as the Polyamine sample
Rate it increases to, 20 hours
  corrosion rate (FIG. 2): 8 mpy
